Data: patent publication US20240358693A1, “METHODS OF TREATING PAIN” (Aisa Pharma, Inc., priority 2023, published 2024)

Test system: participants with SSc-RP
Assay: Scleroderma Health Assessment Questionnaire (SHAQ): disability indices and visual analog scales
Assay type: in vivo, human
Details: Day 12 vs baseline; PP Population, Part A; SSc patients; sensitivity analysis
From the text: The standard, validated, patient reported outcome measures tool for SSc patients, the Scleroderma Health Assessment Questionnaire (SHAQ), will be used to assess the participant qualify of life. Details are attached in the Appendix. The participant quality of life will be scored, and a disability index calculated for each questionnaire completed by the patient at Screening and each in-clinic visit. The absolute change in participant quality of life from baseline to the end of each dosing period will be calculated similar to frequency data as before.
The SHAQ includes a Raynaud's VAS, which will be reported at screening and each in-clinic visit. The absolute change in Raynaud-VAS, assessed by the participants response to the SHAQ question ‘In the past 7 days, how much have your Raynaud's interfered with your daily activities?’ at baseline and the end of each dosing period will be calculated similar to frequency data as before.
The SHAQ is used to calculate a Disability Index to assess the participant qualify of life. The eight categories assessed by the Disability Index are 1) dressing and grooming, 2) arising, 3) eating, 4) walking, 5) hygiene, 6) reach, 7) grip, and 8) common daily activities. For each of these categories, patients report the amount of difficulty they have in performing two or three specific activities.
There are four possible responses for the Disability Index questions: • Without any difficulty=0 • With some difficulty=1 • With much difficulty=2 • Unable to do=3. • The highest score reported by the patient for any component question of the eight categories determines the score for that category. • If a component question is left blank or the response is too ambiguous to assign a score, then the score for that category is determined by the remaining completed question(s). • If all component questions are blank or if more than one answer is given, then follow up with the respondent is required. • If the respondent's mark is between the response columns, then move it to the closest one. If it's directly between the two, move it to the higher one.
Each of the disability items on the SHAQ has a companion aids/devices variable that is used to record what type(s) of assistance, if any, the participant uses for his/her usual activities. These variables (see below) are coded as follows: • 0=No assistance is needed. • 1=A special device is used by the patient in his/her usual activities. • 2=The patient usually needs help from another person. • 3=The patient usually needs BOTH a special device AND help from another person.
The scoring variables and scoring rules permit the computation of two disability indices, the Standard Disability Index and the Alternative Disability Index.
This question results in a new set of category scores that are computed by adjusting the score for each category, if necessary, based on the patient's use of an aid or device or assistance for that category. If either devices and/or help from another person are checked for a category, the score is set to “2”, unless the score is already “3” (i.e., scores of “0” or “1” are increased to “2”). For example, if the highest score for the dressing category is “1”, and the patient says they use a device for dressing, the computed category score would be “2”. The sum of the computed categories scores is then calculated and divided by the number of categories answered. This gives a score in the 0 to 3 range.
The aid and device variables are not used to calculate the alternative disability index; it is calculated by adding the scores for each of the categories and dividing by the number of categories answered. This gives a score in the 0 to 3 range.
The standard, validated, patient reported outcome measures tool for SSc patients, the SHAQ, was collected at the time points specified in the study schedules (FIG. 2 and FIGS. 4A and 4B) to assess the participant's quality of life. The SHAQ included a Raynaud's VAS that will also be reported separately.

For COCCOC(=O)C1=C(C)NC(C)=C(C(=O)OC/C=C/c2ccccc2)C1c1cccc([N+](=O)[O-])c1 (stereo not drawn) [Any Cilnidipine], the “SHAQ Alternative Disability Index, Change from Baseline, Max” value was 0.38, the “SHAQ Alternative Disability Index, Change from Baseline, Mean” value was −0.006 and the “SHAQ Alternative Disability Index, Change from Baseline, Median” value was 0.000. For the same compound, the “SHAQ Alternative Disability Index, Change from Baseline, Min” value was −0.29, the “SHAQ Alternative Disability Index, Change from Baseline, Q1” value was −0.125 and the “SHAQ Alternative Disability Index, Change from Baseline, Q3” value was 0.000. For the same compound, the “SHAQ Alternative Disability Index, Percent Change from Baseline, Max” value was 300.0%, the “SHAQ Alternative Disability Index, Percent Change from Baseline, Mean” value was 21.32% and the “SHAQ Alternative Disability Index, Percent Change from Baseline, Median” value was −10.00%. For the same compound, the “SHAQ Alternative Disability Index, Percent Change from Baseline, Min” value was −100.0%, the “SHAQ Alternative Disability Index, Percent Change from Baseline, Q1” value was −28.57% and the “SHAQ Alternative Disability Index, Percent Change from Baseline, Q3” value was 42.86%. The “SHAQ Visual Analogue Scale - Finger Ulcers, Change from Baseline, Max” value was 0.40, the “SHAQ Visual Analogue Scale - Finger Ulcers, Change from Baseline, Mean” value was −0.540 and the “SHAQ Visual Analogue Scale - Finger Ulcers, Change from Baseline, Median” value was −0.100. For the same compound, the “SHAQ Visual Analogue Scale - Finger Ulcers, Change from Baseline, Min” value was −3.20, the “SHAQ Visual Analogue Scale - Finger Ulcers, Change from Baseline, Q1” value was −0.700 and the “SHAQ Visual Analogue Scale - Finger Ulcers, Change from Baseline, Q3” value was 0.000. The “SHAQ Visual Analogue Scale - Finger Ulcers, Percent Change from Baseline, Max” value was 133.3%, the “SHAQ Visual Analogue Scale - Finger Ulcers, Percent Change from Baseline, Mean” value was −33.91% and the “SHAQ Visual Analogue Scale - Finger Ulcers, Percent Change from Baseline, Median” value was −36.11%. The “SHAQ Visual Analogue Scale - Finger Ulcers, Percent Change from Baseline, Min” value was −100.0%, the “SHAQ Visual Analogue Scale - Finger Ulcers, Percent Change from Baseline, Q1” value was −100.00% and the “SHAQ Visual Analogue Scale - Finger Ulcers, Percent Change from Baseline, Q3” value was −12.50%. The “SHAQ Visual Analogue Scale - Intestinal Problems, Change from Baseline, Max” value was 2.90, the “SHAQ Visual Analogue Scale - Intestinal Problems, Change from Baseline, Mean” value was −0.556 and the “SHAQ Visual Analogue Scale - Intestinal Problems, Change from Baseline, Median” value was −0.100. For the same compound, the “SHAQ Visual Analogue Scale - Intestinal Problems, Change from Baseline, Min” value was −4.40, the “SHAQ Visual Analogue Scale - Intestinal Problems, Change from Baseline, Q1” value was −1.100 and the “SHAQ Visual Analogue Scale - Intestinal Problems, Change from Baseline, Q3” value was 0.200. For the same compound, the “SHAQ Visual Analogue Scale - Intestinal Problems, Percent Change from Baseline, Max” value was 181.3%, the “SHAQ Visual Analogue Scale - Intestinal Problems, Percent Change from Baseline, Mean” value was −18.65% and the “SHAQ Visual Analogue Scale - Intestinal Problems, Percent Change from Baseline, Median” value was −54.13%. For the same compound, the “SHAQ Visual Analogue Scale - Intestinal Problems, Percent Change from Baseline, Min” value was −100.0%, the “SHAQ Visual Analogue Scale - Intestinal Problems, Percent Change from Baseline, Q1” value was −100.00% and the “SHAQ Visual Analogue Scale - Intestinal Problems, Percent Change from Baseline, Q3” value was 40.00%. For the same compound, the “SHAQ Visual Analogue Scale - Overall Disease Severity, Change from Baseline, Max” value was 1.90, the “SHAQ Visual Analogue Scale - Overall Disease Severity, Change from Baseline, Mean” value was −0.991 and the “SHAQ Visual Analogue Scale - Overall Disease Severity, Change from Baseline, Median” value was −1.100. For the same compound, the “SHAQ Visual Analogue Scale - Overall Disease Severity, Change from Baseline, Min” value was −3.10, the “SHAQ Visual Analogue Scale - Overall Disease Severity, Change from Baseline, Q1” value was −1.650 and the “SHAQ Visual Analogue Scale - Overall Disease Severity, Change from Baseline, Q3” value was −0.400. For the same compound, the “SHAQ Visual Analogue Scale - Overall Disease Severity, Percent Change from Baseline, Max” value was 100.0%, the “SHAQ Visual Analogue Scale - Overall Disease Severity, Percent Change from Baseline, Mean” value was −36.33% and the “SHAQ Visual Analogue Scale - Overall Disease Severity, Percent Change from Baseline, Median” value was −42.89%. The “SHAQ Visual Analogue Scale - Overall Disease Severity, Percent Change from Baseline, Min” value was −100.0%, the “SHAQ Visual Analogue Scale - Overall Disease Severity, Percent Change from Baseline, Q1” value was −58.95% and the “SHAQ Visual Analogue Scale - Overall Disease Severity, Percent Change from Baseline, Q3” value was −24.92%. The “SHAQ Visual Analogue Scale - Pain, Change from Baseline, Max” value was 0.90, the “SHAQ Visual Analogue Scale - Pain, Change from Baseline, Mean” value was −0.575 and the “SHAQ Visual Analogue Scale - Pain, Change from Baseline, Median” value was −0.600. For the same compound, the “SHAQ Visual Analogue Scale - Pain, Change from Baseline, Min” value was −2.80, the “SHAQ Visual Analogue Scale - Pain, Change from Baseline, Q1” value was −1.200 and the “SHAQ Visual Analogue Scale - Pain, Change from Baseline, Q3” value was 0.150. For the same compound, the “SHAQ Visual Analogue Scale - Pain, Percent Change from Baseline, Max” value was 20.5%, the “SHAQ Visual Analogue Scale - Pain, Percent Change from Baseline, Mean” value was −22.77% and the “SHAQ Visual Analogue Scale - Pain, Percent Change from Baseline, Median” value was −22.58%. For the same compound, the “SHAQ Visual Analogue Scale - Pain, Percent Change from Baseline, Min” value was −72.2%, the “SHAQ Visual Analogue Scale - Pain, Percent Change from Baseline, Q1” value was −53.33% and the “SHAQ Visual Analogue Scale - Pain, Percent Change from Baseline, Q3” value was 11.54%. For the same compound, the “SHAQ Visual Analogue Scale - Raynaud’s, Change from Baseline, Max” value was 1.50, the “SHAQ Visual Analogue Scale - Raynaud’s, Change from Baseline, Mean” value was −0.696 and the “SHAQ Visual Analogue Scale - Raynaud’s, Change from Baseline, Median” value was −0.300.
